From patent publication US10538491B2, “4,5-substituted picolinamide and picolinonitrile metabotropic glutamate receptor 2 negative allosteric modulators” (Vanderbilt University, priority 2015, dated 2020) come the findings set out here.

For this assay, the target named is rat mGlu2 (Rattus norvegicus (Rat), UniProt P31421). Put plainly: mGlu2 Ca2+ flux assay. It counts as cell-based. Conditions: for IC50: Gα15 HEK293 cells stably expressing rat mGlu2, glutamate EC80, >10,000 = no plateau, >30,000 = no measurable activity; for remaining activity at 30 µM / rat mGlu2 Glu max: amplitude of response in the presence of 30 μM test compound as percentage of maximal response to glutamate; for remaining activity at 30 µM: read-out: rat mGlu2 Glu max; for NAM designation: concentration-dependent decrease in the glutamate EC80 response. How it is done:
Gα15 HEK293 cells stably expressing rat mGlu2 were plated in black-walled, clear-bottomed, poly-D-lysine coated 384-well plates in 20 μL of assay medium (DMEM containing 10% dialyzed FBS, 20 mM HEPES, and 1 mM sodium pyruvate) at a density of 12K cells/well. The cells were grown overnight at 37° C. in the presence of 5% CO2. The next day, medium was removed and the cells incubated with 20 μL of 2.3 μM Fluo-4, AM prepared as a 2.3 mM stock in DMSO and mixed in a 1:1 ratio with 10% (w/v) pluronic acid F-127 and diluted in assay buffer (Hank's balanced salt solution, 20 mM HEPES, and 2.5 mM probenecid) for 45 minutes at 37° C. Dye was removed, 20 μL of assay buffer was added, and the plate was incubated for 5 minutes at room temperature.
Ca^2+ flux was measured using the Functional Drug Screening System (FDSS7000, Hamamatsu, Japan). After establishment of a fluorescence baseline for about 3 seconds, the compounds of the present invention were added to the cells, and the response in cells was measured. 2.3 minutes later an EC20 concentration of the mGlu2 receptor agonist glutamate was added to the cells, and the response of the cells was measured for 1.9 minutes; an EC80 concentration of agonist was added and readings taken for an additional 1.7 minutes. All test compounds were dissolved and diluted to a concentration of 10 mM in 100% DMSO. Compounds were then serially diluted 1:3 in DMSO into 10 point concentration response curves, transferred to daughter plates, and further diluted into assay buffer to a 2× stock. Calcium fluorescence measures were recorded as fold over basal fluorescence; raw data was then normalized to the maximal response to glutamate. Antagonism of the agonist response of the mGlu2 receptor in the present invention was observed as a decrease in response to nearly maximal concentrations of glutamate in the presence of compound compared to the response to glutamate in the absence of compound.
The raw data file containing all time points was used as the data source in the analysis template. This was saved by the FDSS as a tab-delimited text file. Data were normalized using a static ratio function (F/F0) for each measurement of the total 360 values per well divided by each well's initial value. Data were then reduced to peak amplitudes (Max−Initial Min) using a time range that starts approximately 3 seconds prior to the glutamate EC80 addition and continues for approximately 90 seconds. This is sufficient time to capture the peak amplitude of the cellular calcium response. Individual amplitudes were expressed as % ECMax by multiplying each amplitude by 100 and then dividing the product by the mean of the amplitudes derived from the glutamate ECMax-treated wells. IC50 values for test compounds were generated by fitting the normalized values versus the log of the test compound concentration (in mol/L) using a 4 parameter logistic equation where none of the parameters were fixed. Each of the three values collected at each concentration of test compound were weighted evenly.
For NAMs, potency (IC50) and maximum response (% Glu Max), i.e. the amplitude of response in the presence of 30 μM test compound as a percentage of the maximal response to glutamate, are reported. […] Compounds with no measurable activity are designated as “>30,000 nM” since the top concentration of compound tested in the assay is 30 μM.

rat mGlu2, sequence (P31421 19-872): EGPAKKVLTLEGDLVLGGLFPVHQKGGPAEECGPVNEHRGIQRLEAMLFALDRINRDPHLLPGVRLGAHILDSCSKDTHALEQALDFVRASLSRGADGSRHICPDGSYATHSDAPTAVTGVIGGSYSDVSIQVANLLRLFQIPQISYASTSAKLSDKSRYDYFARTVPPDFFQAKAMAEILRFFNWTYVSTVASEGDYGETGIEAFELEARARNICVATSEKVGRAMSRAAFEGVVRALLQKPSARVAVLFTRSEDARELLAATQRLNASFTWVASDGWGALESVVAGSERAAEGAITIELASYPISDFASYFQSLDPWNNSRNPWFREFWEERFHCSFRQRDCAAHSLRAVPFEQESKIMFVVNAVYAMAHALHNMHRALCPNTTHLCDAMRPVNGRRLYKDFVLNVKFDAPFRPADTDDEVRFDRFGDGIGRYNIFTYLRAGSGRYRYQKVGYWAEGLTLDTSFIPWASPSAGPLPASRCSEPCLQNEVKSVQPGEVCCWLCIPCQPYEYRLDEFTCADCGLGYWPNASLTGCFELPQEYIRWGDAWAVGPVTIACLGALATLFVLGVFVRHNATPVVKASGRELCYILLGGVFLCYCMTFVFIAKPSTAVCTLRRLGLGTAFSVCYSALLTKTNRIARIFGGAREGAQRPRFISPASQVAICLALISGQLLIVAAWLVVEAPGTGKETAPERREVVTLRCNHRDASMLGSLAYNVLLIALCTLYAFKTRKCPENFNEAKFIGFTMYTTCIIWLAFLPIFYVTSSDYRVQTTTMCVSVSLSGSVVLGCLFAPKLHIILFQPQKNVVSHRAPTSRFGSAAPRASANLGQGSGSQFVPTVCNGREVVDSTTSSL

The IC50 is the point on the concentration scale where inhibition reaches its midpoint. Regarding `Cn1ccc(COc2cnc(C#N)cc2-c2ccc(F)cc2)n1` [Compound 22, 4-(4-fluorophenyl)-5-((1-methyl-1H-pyrazol-3-yl)methoxy)picolinonitrile], the IC50 was over 10 µM and the remaining activity at 30 µM is 11.1%.

As for `COc1ccc(-c2cc(C(N)=O)ncc2OCc2cccnc2)c(F)c1` [Compound 39, 4-(2-fluoro-4-methoxyphenyl)-5-(pyridin-3-ylmethoxy)picolinamide], the IC50 was found to be 0.039 µM and the remaining activity at 30 µM came to 1.36%.

`N#Cc1cc(-c2ccc(F)cc2)c(OCCc2cccnc2)cn1` [Compound 23, 4-(4-fluorophenyl)-5-(2-(pyridin-3-yl)ethoxy)picolinonitrile] came in with an IC50 of over 30 µM.

Take `N#Cc1cc(-c2ccc(F)cc2)c(OCCOCc2ccccc2)cn1` [Compound 29, 5-(2-(benzyloxy)ethoxy)-4-(4-fluorophenyl)picolinonitrile]: half-maximal inhibition (IC50) was put at 4.25 µM, the remaining activity at 30 µM is 65.2% and the NAM designation entry was “(Partial NAM)”.

Turning to `N#Cc1ccc(F)c(OCCOc2cnc(C(N)=O)cc2-c2ccc(F)cc2)c1` [Compound 156, 5-(2-(5-cyano-2-fluorophenoxy)ethoxy)-4-(4-fluorophenyl)picolinamide], the IC50 was 4.23 µM and the remaining activity at 30 µM was -21.7%.

Turning to `NC(=O)c1cc(-c2ccc(F)cc2)c(NCCCN2CCOCC2)cn1` [Compound 137, 4-(4-fluorophenyl)-5-((3-morpholinopropyl)amino)picolinamide], the IC50 is 9.87 µM and the remaining activity at 30 µM was -13.5%.

As for `NC(=O)c1cc(-c2ccc(F)cc2)c(OCc2ccccc2Br)cn1` [Compound 35, 5-((2-bromobenzyl)oxy)-4-(4-fluorophenyl)picolinamide], the IC50 is 1.11 µM and the remaining activity at 30 µM came out at 1.55%.

Regarding `COc1ccc(-c2cc(C(N)=O)ncc2OCc2cc(F)cc(F)c2)c(F)c1` [Compound 31, 5-((3,5-difluorobenzyl)oxy)-4-(2-fluoro-4-methoxyphenyl)picolinamide], half-maximal inhibition (IC50) was put at 0.395 µM, the remaining activity at 30 µM came to 1.46% and the NAM designation entry is “(Partial NAM)”.

Consider `Cc1cc(COc2cnc(C(N)=O)cc2-c2cnn(C)c2)ccn1` [Compound 89, 4-(1-methyl-1H-pyrazol-4-yl)-5-((2-methylpyridin-4-yl)methoxy)picolinamide], for which the IC50 was over 10 µM and the remaining activity at 30 µM is 30.7%.

With `Cc1cc(COc2cnc(C#N)cc2-c2ccc(F)cc2)ccn1` [Compound 18, 4-(4-fluorophenyl)-5-((2-methylpyridin-4-yl)methoxy)picolinonitrile], the midpoint of inhibition, the IC50, lay at 2.69 µM; the remaining activity at 30 µM is 47.5%; the NAM designation entry is listed as “(Partial NAM)”.

Regarding `CC(Oc1cnc(C#N)cc1-c1ccc(F)cc1)c1ccncc1` (centres unmarked) [Compound 19, 4-(4-fluorophenyl)-5-(1-(pyridin-4-yl)ethoxy)picolinonitrile], the IC50 is over 10 µM and the remaining activity at 30 µM amounted to 27.1%.

Turning to `N#Cc1cccc(COc2cnc(C(N)=O)cc2-c2ccc(F)cc2)c1F` [Compound 149, 5-((3-cyano-2-fluorobenzyl)oxy)-4-(4-fluorophenyl)picolinamide], the IC50 came to 0.254 µM and the remaining activity at 30 µM was 1.66%.

With `CC(CN1CCOCC1)Nc1cnc(C#N)cc1-c1ccc(F)cc1` (centres unmarked) [Compound 4, 4-(4-fluorophenyl)-5-((1-morpholinopropan-2-yl)amino)picolinonitrile], the IC50 is over 10 µM and the remaining activity at 30 µM stood at 46.6%.

With `N#Cc1cc(F)cc(COc2cnc(C(N)=O)cc2-c2ccc(F)cc2)c1` [Compound 146, 5-((3-cyano-5-fluorobenzyl)oxy)-4-(4-fluorophenyl)picolinamide], the midpoint of inhibition, the IC50, lay at 0.944 µM and the remaining activity at 30 µM was 0.48%.

Consider `C[C@@H]1CN(CCOc2cnc(C(N)=O)cc2-c2ccc(F)cc2)C[C@H](C)O1` [Compound 95, 5-(2-((cis)-2,6-dimethylmorpholino)ethoxy)-4-(4-fluorophenyl)picolinamide], for which the IC50 was over 10 µM and the remaining activity at 30 µM is 22.8%.

`NC(=O)c1cc(-c2ccc(F)cc2)c(N2CCC(Oc3ccnc(C(F)(F)F)c3)CC2)cn1` [Compound 138, 4-(4-fluorophenyl)-5-(4-((2-(trifluoromethyl)pyridin-4-yl)oxy)piperidin-1-yl)picolinamide] showed an IC50 of over 10 µM.

Regarding `NC(=O)c1cc(-c2ccc(F)cc2)c(OCCOc2cccc(F)c2)cn1` [Compound 108, 5-(2-(3-fluorophenoxy)ethoxy)-4-(4-fluorophenyl)picolinamide], the IC50 came to 2.38 µM and the remaining activity at 30 µM was 1.95%.

With `CN(CCOCc1cncc(F)c1)c1cnc(C(N)=O)cc1-c1ccc(F)cc1` [Compound 131, 4-(4-fluorophenyl)-5-((2-((5-fluoropyridin-3-yl)methoxy)ethyl)(methyl)amino)picolinamide], half-maximal inhibition (IC50) was put at 5.77 µM and the remaining activity at 30 µM turned out to be 2.62%.

In the case of `NC(=O)c1cc(-c2ccc(F)cc2)c(NCCN2CCOCC2)cn1` [Compound 133, 4-(4-fluorophenyl)-5-((2-morpholinoethyl)amino)picolinamide], the IC50 turned out to be 6.54 µM and the remaining activity at 30 µM was -4.31%.

As to `NC(=O)c1cc(-c2ccc(F)cc2)c(COc2ccc(C(F)(F)F)nc2)cn1` [Compound 91, 4-(4-fluorophenyl)-5-(((6-(trifluoromethyl)pyridin-3-yl)oxy)methyl)picolinamide], half-maximal inhibition (IC50) was put at 0.639 µM and the remaining activity at 30 µM is 0.51%.

For the molecule `NC(=O)c1cc(-c2ccc(F)cc2)c(OCc2cccc(Br)c2)cn1` [Compound 34, 5-((3-bromobenzyl)oxy)-4-(4-fluorophenyl)picolinamide], the IC50 amounted to 1.59 µM and the remaining activity at 30 µM was 10.1%.

On to `Cc1ccc(OC2CN(c3cnc(C(N)=O)cc3-c3ccc(F)cc3)C2)cn1` [Compound 142, 4-(4-fluorophenyl)-5-(3-((6-methylpyridin-3-yl)oxy)azetidin-1-yl)picolinamide], for which the midpoint of inhibition, the IC50, lay at 1.28 µM and the remaining activity at 30 µM came out at 2.35%.

Take `COc1ccc(-c2cc(C(N)=O)ncc2OCc2ccc(C)nc2)c(F)c1` [Compound 83, 4-(2-fluoro-4-methoxyphenyl)-5-((6-methylpyridin-3-yl)methoxy)picolinamide]: the IC50 came to 0.216 µM and the remaining activity at 30 µM is 1%.

Take `N#Cc1cncc(COc2cnc(C(N)=O)cc2-c2ccc(F)cc2)c1` [Compound 151]: the IC50 was 0.683 µM and the “rat mGlu2 Glu max” value came to 2.05%.

For `Cc1ccc(COc2cnc(C(N)=O)cc2-c2cnn(C)c2)cn1` [Compound 85, 4-(1-methyl-1H-pyrazol-4-yl)-5-((6-methylpyridin-3-yl)methoxy)picolinamide], the IC50 is over 10 µM and the remaining activity at 30 µM was determined as 46.7%.

With `NC(=O)c1cc(-c2ccc(F)cc2)c(OCCOc2ccccc2F)cn1` [Compound 109, 5-(2-(2-fluorophenoxy)ethoxy)-4-(4-fluorophenyl)picolinamide], the remaining activity at 30 µM amounted to 2.16%.

For `Cc1ccc(OC2CCN(c3cnc(C(N)=O)cc3-c3ccc(F)cc3)CC2)cn1` [Compound 139, 4-(4-fluorophenyl)-5-(4-((6-methylpyridin-3-yl)oxy)piperidin-l-yl)picolinamide], the IC50 was 9.59 µM and the “rat mGlu2 Glu max” value is reported as 7.04%.

Turning to `NC(=O)c1cc(-c2ccc(F)cc2)c(OCCCN2CCC(F)(F)CC2)cn1` [Compound 96, 5-(3-(4,4-difluoropiperidin-1-yl)propoxy)-4-(4-fluorophenyl)picolinamide], the IC50 is 3.27 µM and the remaining activity at 30 µM is 7.38%.
